Here are results for 11 molecules from patent US9969775B2, “CGRP antagonist peptides” (Ferring B.V., priority 2015, dated 2018).

Numbered stars: 1 amine (or outer) side, 2 acyl side, 3 side chain; on linkers, the order of the positions; unused ones are H or OH. Bridge positions count the residues as written; N and C are the ends. Square brackets hold non-standard residues; d marks the D form. Side chains are listed from the residue outwards. Peptide text beside a SMILES is read from it. * marks the point of attachment. Phe(3-CH2NH2) = O=C([C@H](Cc1cccc(CN[*:3])c1)N[*:1])[*:2]; Phe(3-CONH2) = NC(=O)c1cccc(C[C@H](N)C(=O)O)c1; X16 = CCN(CC)CC[C@H](N[*:1])C(=O)[*:2]; Dab(iPr) = CC(C)NCC[C@H](N)C(=O)O; Benzoyl(4-F) = O=C(c1ccc(F)cc1)*; Oxazole2carbonyl = O=C(c1ncco1)*; 3Pal = N[C@@H](Cc1cccnc1)C(=O)O; Picolinoyl = O=C(c1ccccn1)*; ΔPro = O=C(O)[C@@H]1C=CCN1; Dap = NC[C@H](N)C(=O)O; AEEA = NCCOCCOCC(=O)O

For test [1], the target named is T1, hAM2 receptor (CALCRL:RAMP3) (Homo sapiens, UniProt O60896+Q16602).
T1 construct: expressed in transfected cells; host or cells: GeneBLAzer CALCRL:RAMP3-CRE-bla Freestyle 293F
T1 sequence (Q16602 23-461): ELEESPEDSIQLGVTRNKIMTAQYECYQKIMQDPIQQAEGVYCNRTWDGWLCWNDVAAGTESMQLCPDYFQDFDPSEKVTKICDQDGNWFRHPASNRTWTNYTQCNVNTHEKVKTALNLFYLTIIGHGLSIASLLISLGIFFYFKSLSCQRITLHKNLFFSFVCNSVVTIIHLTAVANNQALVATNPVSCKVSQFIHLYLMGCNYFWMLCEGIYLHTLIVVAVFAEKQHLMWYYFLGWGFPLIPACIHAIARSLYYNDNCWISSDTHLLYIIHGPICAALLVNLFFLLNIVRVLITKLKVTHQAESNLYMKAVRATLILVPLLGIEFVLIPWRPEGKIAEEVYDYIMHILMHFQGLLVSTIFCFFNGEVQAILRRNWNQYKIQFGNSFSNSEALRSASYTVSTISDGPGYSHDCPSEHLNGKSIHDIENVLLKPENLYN
T1 sequence (O60896 24-148): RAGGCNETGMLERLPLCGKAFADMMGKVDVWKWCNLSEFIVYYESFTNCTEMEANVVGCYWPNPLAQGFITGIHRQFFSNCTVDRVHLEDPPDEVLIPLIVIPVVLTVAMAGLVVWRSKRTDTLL
Nature of the test: AM2 receptor antagonist activity measured by cAMP assay (HTRF). Format: cell-based. The note with it: for Emax: % MPE: percent of the maximal possible effect, read-out: hAM2-R Efficacy Antag (%) Ave; for Emax / IC50: agonist human adrenomedullin; for IC50: GeneBLAzer CALCRL:RAMP3-CRE-bla Freestyle 293F cells, read-out: hAM2-R IC50 Ave; for selectivity ratio CGRP/AM2: selectivity ratio for hCGRP over hAM2, calculated from the IC50 values.

Test [2] addresses T2, hCGRP receptor (CALCRL:RAMP1) (Homo sapiens, UniProt O60894+Q16602).
T2 construct: host or cells: GeneBLAzer CALCRL:RAMP1-CRE-bla Freestyle 293F
Briefly: CGRP receptor antagonist activity measured by cAMP assay (HTRF). The format is cell-based. The note with it: agonist human α-CGRP; for Emax: % MPE: percent of the maximal possible effect, read-out: hCGRP-R Efficacy Antag (%) Ave; for IC50: GeneBLAzer CALCRL:RAMP1-CRE-bla Freestyle 293F cells, 30 minutes, read-out: hCGRP-R IC50 Ave. On the procedure: Example 6: CGRP Receptor Antagonist Activity Measured by cAMP Assay
CGRP receptor agonists increase intracellular cyclic adenosine mono-phosphate (cAMP). CGRP receptor antagonists can reduce the agonist effect. Antagonist activity was assessed by measurement of cyclic adenosine mono-phosphate (cAMP) using cell line stably expressing the hCGRP receptor (GeneBLAzer® CALCRL:RAMP1-CRE-bla Freestyle™ 293F, Invitrogen). hCGRP receptor expressing cells were maintained in DMEM high-glucose with GlutaMAX™ containing 10% (v/v) FBS, 0.1 mM NEAA, 25 mM HEPES, 5 ug/ml Blasticidin, 100 ug/ml Hygromycin, and 400 ug/ml Geneticin at 37° C. under 5% CO2 in a humidified atmosphere. For cAMP measurement, cells were washed once with 5 ml 1×PBS, cell maintenance media was replaced with compound buffer ((CB): DMEM containing 0.1% BSA and 0.5 mM IBMX), and flasks were incubated for 1 hour at 37° C. under 5% CO2 in a humidified atmosphere. Cells were removed from culture flasks using non-enzymatic cell dissociation buffer and harvested in CB. The reaction was performed in 384 well white small volume plates (Greiner) at a density of 10,000 cells/well. Cells were exposed to varying concentrations of antagonist compounds for 30 minutes in the presence of a fixed concentration of agonist (human α-CGRP). cAMP levels were measured using an HTRF (homogeneous time resolved fluorescence)-based competitive cAMP immunoassay (cAMP Dynamic 2 Kit, Cisbio), according to the manufacturer's instructions. […] Reported parameters include antagonist potency IC50 (the concentration causing half-maximal inhibition of the agonist response for antagonist compounds) and efficacy (% MPE: percent of the maximal possible effect).

T2 sequence (Q16602 23-461): as the sequence (Q16602 23-461) above
T2 sequence (O60894 27-148): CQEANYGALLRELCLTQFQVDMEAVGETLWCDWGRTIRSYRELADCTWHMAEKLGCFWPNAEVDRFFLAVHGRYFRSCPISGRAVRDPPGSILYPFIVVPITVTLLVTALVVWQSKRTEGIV

The term IC50 denotes the point on the concentration scale where inhibition reaches its midpoint. For `CC(C)[C@@H]1NC(=O)[C@H](CC(=O)O)NC(=O)[C@H](CCCNC(=N)N)NC(=O)[C@@H](NC(=O)[C@H](Cc2ccc(O)cc2)NC(=O)[C@H](NC(=O)c2ccc(F)cc2)C(C)C)CSSC[C@@H](C(=O)N[C@@H](Cc2cccnc2)C(N)=O)NC(=O)[C@H](Cc2ccccc2)NC(=O)[C@@H]2CCCN2C(=O)CNC1=O` [Compound 1] ({Benzoyl(4-F)}-[dV]YCRDVGPFC[3Pal]-NH2; disulfide 3-10), in test [1], the Emax was 101%, the IC50 is 52 nM and the “selectivity ratio CGRP/AM2” value was 362. In addition, in test [2], the Emax was 100% and the half-maximal inhibitory concentration (IC50) was 0.14 nM.
In the same order, the values of `CC(C)[C@@H]1NC(=O)[C@H](CC(=O)O)NC(=O)[C@H](CCCNC(=N)N)NC(=O)[C@@H](NC(=O)[C@H](Cc2ccc(O)cc2)NC(=O)[C@H](NC(=O)c2ccc(F)cc2)C(C)C)CSSC[C@@H](C(=O)N[C@@H](Cc2cccnc2)C(N)=O)NC(=O)[C@H](Cc2cccnc2)NC(=O)[C@@H]2CCCN2C(=O)CNC1=O` [Compound 2, Bz(4-F)-D-Val-Tyr-c(Cys-Arg-Asp-Val-Gly-Pro-3Pal-Cys)-3Pal-NH2] ({Benzoyl(4-F)}-[dV]YCRDVGP[3Pal]C[3Pal]-NH2; disulfide 3-10) are 100%, 45 nM, 555, 100% and 0.08 nM.
In the same order, the values of `CC(C)[C@@H]1NC(=O)[C@H](CC(=O)O)NC(=O)[C@H](CCCNC(=N)N)NC(=O)[C@@H](NC(=O)[C@H](Cc2ccc(O)cc2)NC(=O)[C@H](NC(=O)c2ccccn2)C(C)C)CSSC[C@@H](C(=O)N[C@@H](Cc2cccnc2)C(N)=O)NC(=O)[C@H](Cc2cccnc2)NC(=O)[C@@H]2CCCN2C(=O)CNC1=O` [Compound 3, Picolinoyl-D-Val-Tyr-c(Cys-Arg-Asp-Val-Gly-Pro-3Pal-Cys)-3Pal-NH2] (Picolinoyl-[dV]YCRDVGP[3Pal]C[3Pal]-NH2; disulfide 3-10) are 101%, 35 nM, 285, 100% and 0.12 nM.
In the same order, the values of `CC(C)[C@@H]1NC(=O)[C@H](CC(=O)O)NC(=O)[C@H](CCCNC(=N)N)NC(=O)[C@@H](NC(=O)[C@H](Cc2ccc(O)cc2)NC(=O)[C@H](NC(=O)c2ccc(F)cc2)C(C)C)CSSC[C@@H](C(=O)N[C@@H](Cc2cccnc2)C(N)=O)NC(=O)[C@H](Cc2ccccc2)NC(=O)[C@@H]2C=CCN2C(=O)CNC1=O` [Compound 4, Bz(4-F)-D-Val-Tyr-c(Cys-Arg-Asp-Val-Gly-Dhp-Phe-Cys)-3Pal-NH2] ({Benzoyl(4-F)}-[dV]YCRDVG[ΔPro]FC[3Pal]-NH2; disulfide 3-10) are 113%, 29 nM, 172, 100% and 0.17 nM.
As for `CC(C)[C@@H]1NC(=O)[C@H](CC(=O)O)NC(=O)[C@H](CCCNC(=N)N)NC(=O)[C@@H](NC(=O)[C@H](Cc2ccc(O)cc2)NC(=O)[C@H](NC(=O)c2ccc(F)cc2)C(C)C)CSSC[C@@H](C(=O)N[C@@H](Cc2cccnc2)C(N)=O)NC(=O)[C@H](Cc2cccc(CN)c2)NC(=O)[C@@H]2CCCN2C(=O)CNC1=O` [Compound 5, Bz(4-F)-D-Val-Tyr-c(Cys-Arg-Asp-Val-Gly-Pro-Phe(3-CH2NH2)-Cys)-3Pal-NH2] ({Benzoyl(4-F)}-[dV]YCRDVGP[Phe(3-CH2NH2)]C[3Pal]-NH2; disulfide 3-10), in test [1], the Emax was 99%, the IC50 was 26 nM and the “selectivity ratio CGRP/AM2” value is reported as 192. In addition, in test [2], the Emax is 100% and the concentration for half-maximal inhibition (IC50) is 0.13 nM.
In the same order, the values of `CC(C)[C@@H]1NC(=O)[C@H](CC(=O)O)NC(=O)[C@H](CN)NC(=O)[C@@H](NC(=O)[C@H](Cc2ccc(O)cc2)NC(=O)[C@H](NC(=O)c2ccc(F)cc2)C(C)C)CSSC[C@@H](C(=O)N[C@@H](Cc2cccnc2)C(N)=O)NC(=O)[C@H](Cc2cccc(C(N)=O)c2)NC(=O)[C@@H]2CCCN2C(=O)CNC1=O` [Compound 6, Bz(4-F)-D-Val-Tyr-c(Cys-Dpr-Asp-Val-Gly-Pro-Phe(3-Cbm)-Cys)-3Pal-NH2] ({Benzoyl(4-F)}-[dV]YC[Dap]DVGP[Phe(3-CONH2)]C[3Pal]-NH2; disulfide 3-10) are 113%, 101 nM, 612, 100% and 0.17 nM.
In the same order, the values of `CC(C)[C@@H]1NC(=O)[C@H](CC(=O)O)NC(=O)[C@H](CN)NC(=O)[C@@H](NC(=O)[C@H](Cc2ccc(O)cc2)NC(=O)[C@H](NC(=O)c2ccc(F)cc2)C(C)C)CSSC[C@@H](C(=O)N[C@@H](Cc2cccnc2)C(N)=O)NC(=O)[C@H](Cc2ccc(O)cc2)NC(=O)[C@@H]2CCCN2C(=O)CNC1=O` [Compound 7, Bz(4-F)-D-Val-Tyr-c(Cys-Dpr-Asp-Val-Gly-Pro-Tyr-Cys)-3Pal-NH2] ({Benzoyl(4-F)}-[dV]YC[Dap]DVGPYC[3Pal]-NH2; disulfide 3-10) are 100%, 43 nM, 334, 100% and 0.13 nM.
For `CCN(CC)CC[C@@H]1NC(=O)[C@@H](NC(=O)[C@H](Cc2ccc(O)cc2)NC(=O)[C@H](NC(=O)c2ccccn2)C(C)C)CSSC[C@@H](C(=O)N[C@@H](Cc2cccnc2)C(N)=O)NC(=O)[C@H](Cc2ccccc2)NC(=O)[C@@H]2CCCN2C(=O)CNC(=O)[C@H](C(C)C)NC(=O)[C@H](CC(=O)O)NC1=O` [Compound 8, Picolinoyl-D-Val-Tyr-c(Cys-Dab(Et2)-Asp-Val-Gly-Pro-Phe-Cys)-3Pal-NH2] (Picolinoyl-[dV]YC[X16]DVGPFC[3Pal]-NH2; disulfide 3-10), in test [1], the Emax was 100%, the IC50 was 30 nM and the “selectivity ratio CGRP/AM2” value was 347. In test [2], the Emax was 100% and the IC50 is 0.09 nM.
With `CC(C)NCC[C@@H]1NC(=O)[C@@H](NC(=O)[C@H](Cc2ccc(O)cc2)NC(=O)[C@H](NC(=O)c2ccccn2)C(C)C)CSSC[C@@H](C(=O)N[C@@H](Cc2cccnc2)C(N)=O)NC(=O)[C@H](Cc2ccccc2)NC(=O)[C@@H]2CCCN2C(=O)CNC(=O)[C@H](C(C)C)NC(=O)[C@H](CC(=O)O)NC1=O` [Compound 9, Picolinoyl-D-Val-Tyr-c(Cys-Dab(iPr)-Asp-Val-Gly-Pro-Phe-Cys)-3Pal-NH2] (Picolinoyl-[dV]YC[Dab(iPr)]DVGPFC[3Pal]-NH2; disulfide 3-10), in test [1], the Emax was 106%, the half-maximal inhibitory concentration (IC50) was 51 nM and the “selectivity ratio CGRP/AM2” value is reported as 351. Also, in test [2], the Emax was 100% and the IC50 was 0.15 nM.
Take `CC(C)[C@@H]1NC(=O)[C@H](CC(=O)O)NC(=O)[C@H](CNC(=O)COCCOCCNC(=O)COCCOCCN)NC(=O)[C@@H](NC(=O)[C@H](Cc2ccc(O)cc2)NC(=O)[C@H](NC(=O)c2ccccn2)C(C)C)CSSC[C@@H](C(=O)N[C@@H](Cc2cccnc2)C(N)=O)NC(=O)[C@H](Cc2ccccc2)NC(=O)[C@@H]2CCCN2C(=O)CNC1=O` [Compound 10] (Picolinoyl-[dV]YC[Dap]([AEEA-AEEA])DVGPFC[3Pal]-NH2; disulfide 3-10): the Emax is 107% in test [1] and 100% in test [2].
For `CC(C)[C@@H]1NC(=O)[C@H](CC(=O)O)NC(=O)[C@H](CCCNC(=N)N)NC(=O)[C@@H](NC(=O)[C@H](Cc2ccc(O)cc2)NC(=O)[C@H](NC(=O)c2ncco2)C(C)C)CSSC[C@@H](C(=O)N[C@@H](Cc2cccnc2)C(N)=O)NC(=O)[C@H](Cc2cccnc2)NC(=O)[C@@H]2CCCN2C(=O)CNC1=O` [Compound 11, Oxazole-2-carbonyl-D-Val-Tyr-c(Cys-Arg-Asp-Val-Gly-Pro-3Pal-Cys)-3Pal-NH2] (Oxazole2carbonyl-[dV]YCRDVGP[3Pal]C[3Pal]-NH2; disulfide 3-10), in test [1], the Emax is 108%, the IC50 was 25 nM and the “selectivity ratio CGRP/AM2” value is 198. In test [2], the Emax was 100% and the IC50 is 0.13 nM.
